Data taken from patent US20170021014A1, “VACCINE ADJUVANTS FOR CYTOMEGALOVIRUS PREVENTION AND TREATMENT” (THE JOHNS HOPKINS UNIVERSITY, priority 2015, published 2017).

Key:
[1] = system: TANK-binding kinase (TBK1); assay: Western blot of NOD2 downstream signaling proteins; assay type: cell-based, Human; conditions: HCMV-infected, MOI 0.1, MDP treatment, 36 hpi
Protocol: Cell lysates containing equivalent amount of proteins were mixed with an equal volume of sample buffer (125 mM Tris-HCL, pH 6.8, 4% SDS, 20% glycerol and 5% β-mercaptoethanol) and boiled at 100° C. for 10 min. Denatured proteins were resolved in Tris-glycine polyacrylamide gels (10-12%) and transferred to polyvinylidine difluoride (PVDF) membranes (Bio-Rad Laboratories, Hercules, Calif.) by electroblotting. Membranes were incubated in blocking solution [5% w/v non-fat dry milk and 0.1% Tween-20 in PBS (PBST)] for 1 h, washed with PBST, and incubated with antibody at 4° C. overnight. Membranes were washed with PBST and incubated with horseradish peroxidase-conjugated secondary antibodies in PBST for 1 h at room temperature. Following washing with PBST, protein bands were visualized by chemiluminescence using SuperSignal West Dura and Pico reagents (Pierce Chemical, Rockford, Ill.). Antibodies for HCMV proteins were used at 1:2000 and included: mouse monoclonal anti-HCMV IE1 & IE2 (MAB810, Millipore, Billerica, Mass.), mouse monoclonal anti-HCMV UL83 (pp65, Vector Laboratories Inc., Burlingame, Calif.), and mouse monoclonal anti-pp52 (UL44, Santa Cruz Biotechnology, Santa Cruz, Calif.). […]

NOD2 mRNA = assay: qRT-PCR of NOD2 mRNA in HFFs; assay type: cell-based, Human; conditions: for NOD2 induction by MDP: HCMV-infected, 36 hpi
Protocol: (§1) Total RNA was isolated from cells using RNAeasy Mini kit (Qiagen, Georgetown, Md.) according to manufacturer's instructions. RevertAid first strand cDNA synthesis kit (Fermentas life sciences, Cromwell Park, Md.) was used to synthesize first strand cDNA from total RNA using oligo-dT primers. Negative reverse-transcriptase (−RT) reactions were included to ensure the specificity of qRT-PCR reactions. Synthesis of first strand cDNA from mRNA template was carried out at 42° C. for 1 h. Quantitative RT-PCR was performed using specific primers and SYBR green (Fermentas life science) with two-step cycling protocol (95° C. for 15 s, 60° C. for 1 min). All reactions were performed in triplicates and GAPDH was used as internal control. The expression level of the tested genes was normalized to the expression of GAPDH.

IFN-β mRNA = assay: qRT-PCR of IFN-β mRNA in HFFs; assay type: cell-based, Human
Protocol: as §1

HFFs = assay: MTT cell viability assay; assay type: cell-based, Human
Protocol: MTT assay (Sigma-Aldrich) was performed to rule out any cytotoxicity induced by MDP treatment. Cells (HFFs and transduced GIPZ/shIFNβ-HFFs as described below) were pretreated with MDP for 96- and 72 h, respectively and 20 μl/well of MTT [3-(4, 5-Dimethyl-2-thiazolyl)-2, 5-diphenyl-2H-tetrazolim bromide, 5 mg/mL in phosphate buffered saline (PBS)] was added to each well. After shaking plates at 150 rpm for 5 minutes the plates were incubated at 37° C. for 3 hours. Conversion of yellow solution to dark blue formazan by mitochondrial dehydrogenases of living cells was quantified by measuring absorbance at 560 nm.

HCMV TB40 = assay: Plaque reduction assay in HFFs, HCMV TB40; assay type: cell-based, human cytomegalovirus; conditions: MDP 10 μg/mL pretreatment 72 h, 100 PFU/well, 10 days
Protocol: A plaque reduction assay was performed in HFFs to determine the effects of MDP treatment either before or after infection on virus replication. HFFs were seeded into 12-well plates (2×10^5 cells/well) and infected with Towne HCMV at approximately 100 plaques/well. After 90 minutes, media were aspirated, and DMEM containing 0.5% carboxymethyl-cellulose (CMC), 4% fetal bovine serum (FBS), and MDP at final concentration of 10 μg/mL were added into duplicate wells. In pretreatment experiments HFFs were first treated with MDP (10 μg/mL) for 72 h after which infection with the Towne or TB40 strains was carried out at approximately 100 plaques/well. After 90 minute adsorption, media were aspirated, and DMEM containing 0.5% CMC and 4% FBS were added into duplicate wells. After incubation at 37° C. for 8 days (Towne) or 10 days (TB40) the overlay was removed and plaques were counted after crystal violet staining.

SMILES: CC(=O)N[C@H]1C(O)O[C@H](CO)[C@@H](O)[C@@H]1O[C@H](C)C(=O)N[C@@H](C)C(=O)N[C@H](CCC(=O)O)C(N)=O (mixture of isomers) [MDP, Muramyl dipeptide]
- phosphorylation of TBK1 [1]: increased phosphorylation
- NOD2 induction by MDP (NOD2 mRNA; MOI 0.1, MDP after infection): 6.5 fold
- NOD2 induction by MDP (NOD2 mRNA; MOI 1, MDP after infection): 2.5 fold
- NOD2 mRNA induction (NOD2 mRNA; MDP pretreatment 72 h then HCMV Towne MOI 1 for 24 h (infection only 50-fold)): 265 fold
- induction of NOD2 mRNA (NOD2 mRNA; non-infected HFFs, MDP 10 μg/mL, 36 h): 4 fold
- induction of NOD2 mRNA (NOD2 mRNA; non-infected cells, 72 h MDP treatment then 24 h medium): 3 fold
- increase in IFN-β mRNA (IFN-β mRNA; HCMV-infected, MDP treatment, 4 hpi): 2 fold
- induction of IFN-β mRNA (IFN-β mRNA; MDP after infection at MOI 0.1, 36 hpi (infection only 15-fold)): 170 fold
- induction of IFN-β mRNA (IFN-β mRNA; MDP after infection at MOI 1, 36 hpi (infection only 300-fold)): 800 fold
- IFN-β expression induction (IFN-β mRNA; MDP alone, compared to non-infected cells, 36 h): 4 fold
- IFN-β mRNA (IFN-β mRNA; MDP pretreatment 72 h then HCMV MOI 1 for 24 h): significant induction
- IFN-β mRNA (IFN-β mRNA; non-infected HFFs, MDP pretreatment 72 h): did not result in IFN-β induction
- cellular toxicity (MTT) (HFFs; HFFs treated 96 h): no toxicity at any of the concentrations used
- toxicity / cell growth (MTT) (HFFs; control GIPZ or shIFN-β KD HFFs, MDP 10 μg/mL 72 h): No toxicity or difference in cell growth
- plaque number reduction (HCMV TB40): ~70%
